Data from PubChem BioAssay AID624404 (Broad Institute, 2012).
Inconclusive results are not listed.

Test system: D54 LucT luciferase reporter counterscreen, luminescence, 24 h
Assay: luciferase activators in glycosylation-insensitive reporter cells, dose response, counter-screen for N-linked glycosylation inhibitor project, D54 LucT cells, luminescence, cherry pick (AID 624404)

Structure (SMILES)	AC35
CCc1ccc(OCC(=O)Nc2ccncc2)c(Br)c1	0.598 µM
CN1/C(=C/C=C(/C#N)C(N)=O)C(C)(C)c2ccccc21	0.00724 µM
COc1cccc(N2CCN(C(=O)c3ccc(CS(=O)c4ccc(Cl)cc4)o3)CC2)c1 (centres undefined)	0.773 µM
COc1ccccc1CCNCc1ccc(OC)c(OCc2ccccc2)c1	1.17 µM
Cc1ccnc(NC(=O)Nc2ccc3c(c2)N(C)C(=O)CS3)c1	0.00868 µM
O=C(CCN1C(=O)/C(=C/c2cccs2)SC1=S)N1CCCCC1	4.53 µM
Cc1ccc(C)c(Cn2nnc3c(=O)[nH]c(C4CCN(C(=O)c5ccco5)CC4)nc32)c1	0.852 µM
CC[C@H](C)C(=O)O[C@H]1CCC=C2C=C[C@H](C)[C@H](CC[C@@H]3C[C@@H](O)CC(=O)O3)[C@H]21	1.26 µM
CC(Nc1nc(-c2ccccc2O)nc2ccccc12)c1ccccc1 (centres undefined)	0.0395 µM
Nc1ccc(C(=O)Nc2ccccc2N)cc1	0.744 µM
O=C(CCN1C(=O)/C(=C\c2ccccc2)SC1=S)N1CCCCC1	6.19 µM
COc1cc(C(=O)Nc2cc(C(F)(F)F)ccc2N2CCOCC2)ccc1OCC(=O)N1CCOCC1	2.13 µM
O=C(Nc1ccncc1)C1CCCN(S(=O)(=O)c2cccc3cccnc23)C1 (centres undefined)	4.67 µM
O=C(c1ccc(Cl)c(S(=O)(=O)N2CCCCC2)c1)N1CCN(Cc2ccccc2)CC1	1.92 µM
COc1ccccc1NC(=O)c1ccc(-c2ccc(Br)cc2)o1	0.466 µM
O=C(/C=C/c1cccc([N+](=O)[O-])c1)c1ccc2c(c1)OCCO2	0.247 µM
CC1(C)Cc2c(c(N3CCOCC3)nc3snc(N)c23)CO1	1.2 µM
COc1ccc2c(c1)OC[C@H]1[C@H]2N2C(=O)c3cc(Br)ccc3NC(=O)[C@@]2(C)[C@H]1c1ccccc1	0.944 µM
Cc1cc(=O)oc2cc(OCC3CC(c4ccccc4)=NO3)ccc12 (centres undefined)	1.54 µM
Cn1nc(C(=O)Nc2cccc(S(=O)(=O)N3CCCCC3)c2)c2ccccc2c1=O	0.0503 µM
CCn1c(=O)c2cc(C(=O)NCCCOC)sc2c2ccccc21	0.177 µM
COC(=O)c1c(NC(=O)c2cccnc2Cl)sc(C(=O)N(C)C)c1C	1.38 µM
O=C(N/N=C/c1ccc(Cl)cc1)c1sccc1OCc1ccc(F)cc1	0.514 µM
COc1ccc(NC(=O)c2cc3c(=O)n(C)c4ccccc4c3n2C)cc1OC	4 µM
COc1ccc(Nc2nc(-c3sc(C)nc3C)cs2)c(OC)c1	0.075 µM

Structure (SMILES)	AC35
Cc1ccc2c(c1)C(=O)N1[C@H]3c4cc(Br)ccc4OC[C@@H]3[C@H](c3ccccc3)[C@]1(C)C(=O)N2	0.241 µM
C=CCn1c(SCc2c(C)noc2C)nc2sc(C)c(C)c2c1=O	2.02 µM
CCOC(=O)c1c(NC(C)=O)sc2c(OCCN(CC)CC)c(Br)ccc12	0.00767 µM
O=C(Nc1ccccc1O)c1ccc(NS(=O)(=O)c2cccc3cccnc23)cc1	4.41 µM
COc1cc(C(=O)NCC(=O)NCCN2C(=O)S/C(=C\c3ccccc3Cl)C2=O)cc(OC)c1OC	1.15 µM
Cc1ccc(-n2nc(C)c(/C=N/NC(=O)c3cccs3)c2Cl)cc1	0.0556 µM
C=CCOc1ccc(C(=O)Nc2ccccc2C(=O)NCc2cccnc2)cc1	0.109 µM
COC(=O)c1cc(=O)n(-c2ccc(F)cc2)c(=Nc2ccc(F)cc2)s1	0.0251 µM
CCc1cccc(CC)c1NC(=O)CN1C2CCCC1CC(NC(=O)Nc1cccc(OC)c1)C2 (centres undefined)	3.14 µM
CC[C@H](C)C(=O)O[C@H]1C[C@@H](C)C=C2C=C[C@H](C)[C@H](CC[C@@H]3C[C@@H](O)CC(=O)O3)[C@H]21	0.695 µM
COc1ccc2c(c1)[C@H]1[C@H](CO2)[C@H](c2ccccc2)[C@]2(C)C(=O)Nc3ccc(Cl)cc3C(=O)N12	0.148 µM
Cc1ccc(-c2cc(C(=O)NCC(c3ccccc3)N(C)C)c3ccccc3n2)o1 (centres undefined)	3.3 µM
COc1ccc(NC(=O)C2Cc3c(-c4cccc(NC(C)=O)c4)ccnc3O2)cc1OC (centres undefined)	1.83 µM
COc1ccc2c(c1)C(=O)N1[C@H]3c4cc(Cl)ccc4OC[C@@H]3[C@H](c3ccccc3)[C@]1(C)C(=O)N2	0.981 µM
COc1ccccc1-c1csc(C(NC(C)=O)c2cccc(F)c2)n1 (centres undefined)	0.59 µM
COc1ccccc1N1CC(O)=C(c2nc3ccccc3c(=O)[nH]2)C1=N	5.72 µM
C[C@@]12C(=O)Nc3cc(Cl)ccc3C(=O)N1[C@H]1c3cc(Br)ccc3OC[C@@H]1[C@@H]2c1ccccc1	2.55 µM
COC(=O)Nc1nc2ccc(-c3n[nH]c(=O)c4ccccc34)cc2[nH]1	0.282 µM
COc1ccc(CNC(=O)c2cccc3c(-c4cccc(C(N)=O)c4)coc23)cc1OC	0.408 µM
Cc1cccc(Nc2nc(N)nc(-c3oc4ccccc4c3C)n2)c1	1.57 µM
CC#CCN1c2ccccc2[C@]23C[C@@H](C(=O)OC)N(C(=O)c4cc(C)oc4C)C2=NC(C(=O)OC)=C(C(=O)OC)[C@H]13	2.27 µM
COC(=O)c1c(C)[nH]c(C(=O)/C=C/c2cccc(Cl)c2)c1C	0.839 µM
COc1ccc(-n2c(NNC(C)=O)nc3sc4c(c3c2=O)CCCC4)cc1	1.86 µM
CN(C)c1ccc(/C=N/NC(=O)c2ccccc2Cl)cc1	0.119 µM
Cn1c(=O)n(C)c2cc(NC(=O)CCl)ccc21	0.707 µM

Structure (SMILES)	AC35
C=C(C)Cn1c2ccc(NC(=O)CCc3cccc(Cl)c3)cc2c(=O)n1C	4.26 µM
CCn1c2ccccc2c2cc(NC(=O)COC(=O)c3ccccc3F)ccc21	4.22 µM
COc1ccc(OC)c(N(CC(=O)Nc2cccc3ccccc23)S(C)(=O)=O)c1	2.42 µM
CCOc1ccc2c(c1)OC(c1ccc(OC)cc1)(C(F)(F)F)NC2=O (centres undefined)	0.748 µM
NNC(=O)c1oc2nc(-c3cccs3)cc(-c3ccco3)c2c1N	2.93 µM
O=C(NC1CCCC(C(F)(F)F)C1)c1ccc([N+](=O)[O-])o1 (centres undefined)	3.97 µM
Cc1ccc(C(=O)Nc2ccccc2C(=O)N2CC(C)OC(C)C2)cc1 (centres undefined)	0.625 µM
NC(=O)CC(NC(=O)c1ccc(Br)cc1)c1ccc(N2CCCCCC2)c([N+](=O)[O-])c1 (centres undefined)	1.09 µM
O=c1cc(N2CCN(c3ccccc3Cl)CC2)[nH]c(=O)n1Cc1ccc(F)cc1	3.26 µM
COc1ccccc1C(=O)Nc1ccc2c(c1)nc(CCNC(=O)c1ccco1)n2C	0.0453 µM
Cn1c(-c2ccccc2)c(/C=N/NC(=O)c2ccc(O)cc2)c2ccccc21	0.319 µM
COc1ccc(CC(=O)N(Cc2ccccc2)c2ccc(C)cc2)cc1OC	1.04 µM
Cc1ccc2c(c1)cc(CN(C(=O)N1CCOCC1)C1CCCC1)c1nnnn12	2.46 µM
CC(=O)c1ccc(OCC(O)CN2CCN(CCN3C(=O)c4cccc5cccc(c45)C3=O)CC2)cc1 (centres undefined)	4.42 µM
Cc1c(Cl)cccc1Nc1nc(N)nc(CN2CCc3ccccc3C2)n1	0.614 µM
COc1cc(OC)c(N2CC(C(=O)Nc3cc(Cl)ccc3N3CCOCC3)CC2=O)cc1Cl (centres undefined)	1.26 µM
COc1ccc(/C=C/C(=O)Oc2cccc(/C=N/NC(=O)COc3c(C)cccc3C)c2)cc1	3.25 µM
C=CCn1c(O)c(/C=C2/C=CC=N2)c(=O)[nH]c1=O	14.3 µM
Cc1ccnc2nc(C(=O)Nc3cc(Cl)ccc3N3CCOCC3)nn12	0.155 µM
CC(=O)Nc1ccc(/C=C/C(=O)c2ccc3c(c2)OCCO3)cc1	2.88 µM
Cc1ccc(NC(=O)c2ccc(Cl)cc2[N+](=O)[O-])nc1	2.42 µM
Cc1ccc(C(=O)N2CCN(Cc3ccccc3)CC2)cc1S(=O)(=O)N1CCOCC1	2.96 µM
COc1cc2c(cc1OC)C(c1ccccc1)N(C(=O)c1ccccc1)CC2 (centres undefined)	0.321 µM
COc1cc(C(=O)Nc2cc3c(cc2N2CCCCC2)n(C)c(=O)n3C)cc(OC)c1OC	0.0964 µM
